Laboratory results reported in US10214542B2, “Modified macrocyclic compounds” (BAYER PHARMA AKTIENGESELLSCHAFT, priority 2015, dated 2019).

Columns and labels:
[1] = target: T1, CDK9/CycT1 (Homo sapiens, UniProt P50750); test: CDK9/CycT1 high ATP kinase assay (TR-FRET, Method 1b); assay type: biochemical; conditions: 2 mM ATP; for IC50: Method 1b; for Selectivity high ATP CDK9 over high ATP CDK2: IC50 (high ATP CDK2)/IC50 (high ATP CDK9): Methods 1b and 2b
T1 construct: Recombinant full-length His-tagged human CDK9 and CycT1; His; purchased Invitrogen PV4131; host or cells: insect cells
Method: 1b. CDK9/CycT1 High ATP Kinase Assay
CDK9/CycT1-inhibitory activity of compounds of the present invention at a high ATP concentration after preincubation of enzyme and test compounds was quantified employing the CDK9/CycT1 TR-FRET assay as described in the following paragraphs.
Recombinant full-length His-tagged human CDK9 and CycT1, expressed in insect cells and purified by Ni-NTA affinity chromatography, were purchase from Invitrogen (Cat. No PV4131). As substrate for the kinase reaction biotinylated peptide biotin-Ttds-YISPLKSPYKISEG (C-terminus in amid form) was used which can be purchased e.g. from the company JERINI peptide technologies (Berlin, Germany).
For the assay 50 nl of a 100 fold concentrated solution of the test compound in DMSO was pipetted into a black low volume 384 well microtiter plate (Greiner Bio-One, Frickenhausen, Germany), 2 μl of a solution of CDK9/CycT1 in aqueous assay buffer [50 mM Tris/HCl pH 8.0, 10 mM MgCl2, 1.0 mM dithiothreitol, 0.1 mM sodium ortho-vanadate, 0.01% (v/v) Nonidet-P40 (Sigma)] were added and the mixture was incubated for 15 min at 22° C. to allow pre-binding of the test compounds to the enzyme before the start of the kinase reaction. […] The concentration of CDK9/CycT1 was adjusted depending of the activity of the enzyme lot and was chosen appropriate to have the assay in the linear range, typical concentrations were in the range of 0.5 μg/mL. The reaction was stopped by the addition of 5 μl of a solution of TR-FRET detection reagents (0.2 μM streptavidine-XL665 [Cisbio Bioassays, Codolet, France] and 1 nM anti-RB(pSer807/pSer811)-antibody from BD Pharmingen [#558389] and 1.2 nM LANCE EU-W1024 labeled anti-mouse IgG antibody [Perkin-Elmer, product no. AD0077]) in an aqueous EDTA-solution (100 mM EDTA, 0.2% (w/v) bovine serum albumin in 100 mM HEPES pH 7.5).
The resulting mixture was incubated 1 h at 22° C. to allow the formation of complex between the phosphorylated biotinylated peptide and the detection reagents. Subsequently the amount of phosphorylated substrate was evaluated by measurement of the resonance energy transfer from the Eu-chelate to the streptavidine-XL. Therefore, the fluorescence emissions at 620 nm and 665 nm after excitation at 350 nm was measured in a HTRF reader, e.g. a Rubystar (BMG Labtechnologies, Offenburg, Germany) or a Viewlux (Perkin-Elmer). The ratio of the emissions at 665 nm and at […] was taken as the measure for the amount of phosphorylated substrate. The data were normalised (enzyme reaction without inhibitor=0% inhibition, all other assay components but no enzym=100% inhibition).

[2] = target: T2, CDK2/CycE (Homo sapiens, UniProt P24941); test: CDK2/CycE high ATP kinase assay (TR-FRET, Method 2b); assay type: biochemical; conditions: 2 mM ATP
T2 construct: GST; purchased ProQinase GmbH (Freiburg, Germany); host or cells: insect cells (Sf9)
Method: 2b. CDK2/CycE High ATP Kinase Assay:
CDK2/CycE-inhibitory activity of compounds of the present invention at 2 mM adenosine-tri-phosphate (ATP) was quantified employing the CDK2/CycE TR-FRET (TR-FRET=Time Resolved Fluorescence Resonance Energy Transfer) assay as described in the following paragraphs.
Recombinant fusion proteins of GST and human CDK2 and of GST and human CycE, expressed in insect cells (Sf9) and purified by Glutathion-Sepharose affinity chromatography, were purchase from ProQinase GmbH (Freiburg, Germany). As substrate for the kinase reaction biotinylated peptide biotin-Ttds-YISPLKSPYKISEG (C-terminus in amid form) was used which can be purchased e.g. from the company JERINI peptide technologies (Berlin, Germany).
For the assay 50 nl of a 100 fold concentrated solution of the test compound in DMSO was pipetted into a black low volume 384 well microtiter plate (Greiner Bio-One, Frickenhausen, Germany), 2 μl of a solution of CDK2/CycE in aqueous assay buffer [50 mM Tris/HCl pH 8.0, 10 mM MgCl2, 1.0 mM dithiothreitol, 0.1 mM sodium ortho-vanadate, 0.01% (v/v) Nonidet-P40 (Sigma)] were added and the mixture was incubated for 15 min at 22° C. to allow pre-binding of the test compounds to the enzyme before the start of the kinase reaction. Then the kinase reaction was started by the addition of 3 μl of a solution ATP (3.33 mM=>final conc. in the 5 μl assay volume is 2 mM) and substrate (1.25 μM=>final conc. in the 5 μl assay volume is 0.75 μM) in assay buffer and the resulting mixture was incubated for a reaction time of 25 min at 22° C. The concentration of CDK2/CycE was adjusted depending of the activity of the enzyme lot and was chosen appropriate to have the assay in the linear range, typical concentrations were in the range of 15 ng/ml. The reaction was stopped by the addition of 5 μl of a solution of TR-FRET detection reagents (0.2 μM streptavidine-XL665 [Cisbio Bioassays, Codolet, France] and 1 nM anti-RB(pSer807/pSer811)-antibody from BD Pharmingen [#558389] and 1.2 nM LANCE EU-W1024 labeled anti-mouse IgG antibody [Perkin-Elmer, product no. AD0077, as an alternative a Terbium-cryptate-labeled anti-mouse IgG antibody from Cisbio Bioassays can be used]) in an aqueous EDTA-solution (100 mM EDTA, 0.2% (w/v) bovine serum albumin in 100 mM HEPES pH 7.5).
The resulting mixture was incubated 1 h at 22° C. to allow the formation of complex between the phosphorylated biotinylated peptide and the detection reagents. Subsequently the amount of phosphorylated substrate was evaluated by measurement of the resonance energy transfer from the Eu-chelate to the streptavidine-XL. Therefore, the fluorescence emissions at 620 nm and 665 nm after excitation at 350 nm were measured in a TR-FRET reader, e.g. a Rubystar (BMG Labtechnologies, Offenburg, Germany) or a Viewlux (Perkin-Elmer). The ratio of the emissions at 665 nm and at […] was taken as the measure for the amount of phosphorylated substrate. The data were normalised (enzyme reaction without inhibitor=0% inhibition, all other assay components but no enzym=100% inhibition).

T1 sequence (P50750 whole entry): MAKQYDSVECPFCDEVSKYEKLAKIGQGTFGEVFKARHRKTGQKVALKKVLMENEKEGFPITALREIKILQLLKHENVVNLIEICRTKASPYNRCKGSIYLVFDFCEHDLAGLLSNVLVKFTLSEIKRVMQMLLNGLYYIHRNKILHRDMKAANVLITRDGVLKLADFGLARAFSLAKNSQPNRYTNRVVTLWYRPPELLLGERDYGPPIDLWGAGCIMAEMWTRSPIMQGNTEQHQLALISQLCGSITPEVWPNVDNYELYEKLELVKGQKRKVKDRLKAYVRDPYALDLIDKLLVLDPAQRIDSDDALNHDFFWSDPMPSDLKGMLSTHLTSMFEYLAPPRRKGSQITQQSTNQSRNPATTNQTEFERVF
T1 sequence (O60563 whole entry partner): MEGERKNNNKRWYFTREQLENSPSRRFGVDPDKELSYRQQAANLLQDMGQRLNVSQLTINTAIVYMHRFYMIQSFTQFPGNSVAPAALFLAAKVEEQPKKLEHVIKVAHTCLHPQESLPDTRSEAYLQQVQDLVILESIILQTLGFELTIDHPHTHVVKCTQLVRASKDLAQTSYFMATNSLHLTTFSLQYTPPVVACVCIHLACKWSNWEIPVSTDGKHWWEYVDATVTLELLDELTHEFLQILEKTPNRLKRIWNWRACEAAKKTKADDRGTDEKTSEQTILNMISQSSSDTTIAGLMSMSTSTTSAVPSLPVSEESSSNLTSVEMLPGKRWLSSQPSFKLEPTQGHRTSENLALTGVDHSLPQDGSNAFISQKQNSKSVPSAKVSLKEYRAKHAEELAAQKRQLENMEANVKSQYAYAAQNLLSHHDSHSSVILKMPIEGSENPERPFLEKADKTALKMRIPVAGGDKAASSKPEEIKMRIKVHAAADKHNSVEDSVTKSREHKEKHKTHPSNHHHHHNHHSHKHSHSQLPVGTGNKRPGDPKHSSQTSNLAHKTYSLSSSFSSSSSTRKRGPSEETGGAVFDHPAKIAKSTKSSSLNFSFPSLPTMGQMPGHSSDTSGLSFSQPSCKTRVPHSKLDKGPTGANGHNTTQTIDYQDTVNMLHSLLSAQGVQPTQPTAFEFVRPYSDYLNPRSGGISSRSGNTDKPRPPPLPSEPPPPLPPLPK

IC50 [1] [µM]	Selectivity high ATP CDK9 over high ATP CDK2: IC50 (high ATP CDK2)/IC50 (high ATP CDK9) [1]	IC50 [2] [µM]	SMILES
0.044	>454	> 20	CC(C)(C)OC(=O)N=S(C)(=O)Cc1cc2cc(c1)Nc1ncc(F)c(n1)-c1ccc(F)cc1OCCCCN2 (racemic) [Example 24, (rac)-tert-butyl[{[16,20-difluoro-3,4,5,6-tetrahydro-2H,12H-13,17-(azeno)-11,7-(metheno)-1,6,12,14-benzoxatriazacyclononadecin-9-yl]methyl}(methyl)oxido-λ^6-sulfanylidene]carbamate]
0.0045	244	1.1	CS(=N)(=O)Cc1cc2cc(c1)OCCCCSc1cc(F)ccc1-c1nc(ncc1F)N2 (racemic) [Example 22, (rac)-16,20-difluoro-9-[(S-methylsulfonimidoyl)methyl]-2,3,4,5-tetrahydro-12H-17,13-(azeno)-11,7-(metheno)-6,1,12,14-benzoxathiadiazacyclononadecine]
0.246	>81.3	> 20	CSCc1cc2nc(c1)OCCCCCc1cc(F)ccc1-c1cc(ncc1F)N2 [Example 18, 2,19-difluoro-9-[(methylsulfanyl)methyl]-14,15,16,17-tetrahydro-6H,13H-7,11-(azeno)-5,1-(metheno)-12,4,6-benzoxadiazacyclononadecine]
0.0047	713	3.35	CC(C)(C)OC(=O)N=S(C)(=O)Cc1cc2cc(c1)OCCCCNc1cc(F)ccc1-c1nc(ncc1F)N2 (racemic) [Example 15, (rac)-tert-butyl[{[16,20-difluoro-2,3,4,5-tetrahydro-1H,12H-13,17-(azeno)-11,7-(metheno)-6,1,12,14-benzoxatriazacyclononadecin-9-yl]methyl}(methyl)oxido-λ^6-sulfanylidene]carbamate]
0.0127	634	8.05	CS(=O)(Cc1cc2nc(c1)Nc1cc(c(F)cn1)-c1ccc(F)cc1OCCCCN2)=NC(=O)OCc1ccccc1 (racemic) [Example 2, (rac)-Benzyl[{[16,20-difluoro-3,4,5,6-tetrahydro-2H,12H-11,7-(azeno)-13,17-(metheno)-1,6,12,14-benzoxatriazacyclononadecin-9-yl]methyl}(methyl)oxido-λ^6-sulfanylidene]carbamate]
0.006	1375	8.25	C[S+]([O-])Cc1cc2nc(c1)OCCCCc1cc(F)ccc1-c1cc(ncc1F)N2 (racemic) [Example 5, (rac)-2,18-Difluoro-9-[(methylsulfinyl)methyl]-13,14,15,16-tetrahydro-6H-7,11-(azeno)-5,1-(metheno)-12,4,6-benzoxadiazacyclooctadecine]

Second part, the molecule before the results:

SMILES	IC50 [1] [µM]	Selectivity high ATP CDK9 over high ATP CDK2: IC50 (high ATP CDK2)/IC50 (high ATP CDK9) [1]	IC50 [2] [µM]
CC(C)(C)OC(=O)N=S(C)(=O)Cc1cc2nc(c1)Nc1cc(c(F)cn1)-c1ccc(F)cc1OCCCN2 (racemic) [Example 7, (rac)-tert-butyl[{[15,19-difluoro-2,3,4,5-tetrahydro-11H-10,6-(azeno)-16,12-(metheno)-1,5,11,13-benzoxatriazacyclooctadecin-8-yl]methyl}(methyl)oxido-λ^6-sulfanylidene]carbamate]	0.0019	32.1	0.061
CS(=N)(=O)Cc1cc2nc(c1)OCCCCCc1cc(F)ccc1-c1cc(ncc1F)N2 (racemic) [Example 20, (rac)-2,19-difluoro-9-[(S-methylsulfonimidoyl)methyl]-14,15,16,17-tetrahydro-6H,13H-7,11-(azeno)-5,1-(metheno)-12,4,6-benzoxadiazacyclononadecine]	0.0052	177	0.921
CC(C)(C)OC(=O)N=S(C)(=O)Cc1cc2cc(c1)OCCCCSc1cc(F)ccc1-c1nc(ncc1F)N2 (racemic) [Example 21, (rac)-tert-butyl[{[16,20-difluoro-2,3,4,5-tetrahydro-12H-17,13-(azeno)-11,7-(metheno)-6,1,12,14-benzoxathiadiazacyclononadecin-9-yl]methyl}(methyl)oxido-λ^6-sulfanylidene]carbamate]	0.013	915	11.9
CS(=N)(=O)Cc1cc2nc(c1)Nc1cc(c(F)cn1)-c1ccc(F)cc1OCCCN2 (racemic) [Example 8, (rac)-15,19-difluoro-8-[(S-methylsulfonimidoyl)methyl]-2,3,4,5-tetrahydro-11H-10,6-(azeno)-16,12-(metheno)-1,5,11,13-benzoxatriazacyclooctadecine]	0.0007	41.4	0.029
